Columns and labels:
GSH reductase (GOR) = biological target: T1, GSH reductase (GOR) (Homo sapiens, UniProt P00390); experiment: inhibition of GSH reductase (GOR) by HOCl and repair by SCN^− (GOR-catalyzed reduction of GSSG by NADPH, kinetic traces at 340 nm); assay type: biochemical
T1 sequence (P00390 45-522 limits assumed): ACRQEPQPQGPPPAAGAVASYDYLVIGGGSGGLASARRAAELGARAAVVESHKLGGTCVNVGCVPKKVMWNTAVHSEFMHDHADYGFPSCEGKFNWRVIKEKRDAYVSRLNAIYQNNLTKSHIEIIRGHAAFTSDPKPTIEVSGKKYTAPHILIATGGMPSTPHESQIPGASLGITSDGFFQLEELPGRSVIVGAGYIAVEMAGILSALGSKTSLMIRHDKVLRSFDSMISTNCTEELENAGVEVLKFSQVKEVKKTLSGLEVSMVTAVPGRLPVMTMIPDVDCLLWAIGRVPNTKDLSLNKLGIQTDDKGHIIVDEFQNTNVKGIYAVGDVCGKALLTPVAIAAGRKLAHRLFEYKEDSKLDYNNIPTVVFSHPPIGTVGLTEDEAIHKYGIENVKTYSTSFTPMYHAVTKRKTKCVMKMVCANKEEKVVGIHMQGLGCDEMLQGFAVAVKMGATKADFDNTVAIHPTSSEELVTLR
Experimental: FIG. 2 contains kinetic traces at 340 nm depicting the GOR-catalyzed reduction of GSSG by NADPH. Conditions: (Control) [GSSG]o=1 mM, [NADPH]o=0.1 mM, [GOR]=0.025 U/mL, [iP]=0.1 M, pH 7.4 and T=25° C.; (SCN^- treated) GOR incubated with 40 μM HOCl for 20 minutes and then treated with 160 μM SCN^- for another 20 minutes. (HOCl modified) GOR incubated with 40 μM HOCl for 20 minutes and then treated with iP for an additional 20 minutes. […] Glutathione (GSH) is a major non-protein thiol in cells (up to mM concentrations have been reported in some cells). One of the cellular functions of GSH is to serve as an antioxidant, and thus GSH is essential for cell survival, especially during conditions of oxidative stress. Many of the important residues in the active site of GOR, including two cysteines ([…]) and tyrosine ([…]), are susceptible to HOCl attack. Oxidation of these residues results in the inhibition of enzyme activity.

A549 cells [1] = experiment: fluorescent probe detection of HOCl-produced intracellular chloramines in A549 cells; assay type: cell-based, human
Experimental: In each experiment, A549 cells were incubated with 50 μM HOCl in RPMI culture medium for 20 min at 37° C. and washed with the medium to remove residual HOCl; the cells were then incubated for an additional 20 minutes at 37° C. with 50 μM SCN^− and washed again with the medium. FIG. 3D illustrates the structure of the rhodamine-hydroxymic acid-based probe utilized in FIGS. 3A-C.

A549 cells [2] = experiment: flow cytometry of percent live, necrotic and apoptotic A549 cells; assay type: cell-based, human
Experimental: A549 cells were untreated (A), treated with 50 μM HOCl (B), treated with 50 μM SCN^− followed by treatment with 50 μM HOCl, (C), or treated with 50 μM HOCl followed by treatment 30 minutes later with 50 μM SCN^− (D).
Using the same protocol that was used to investigate the reaction of intracellular chloramines with SCN^− (FIG. 3), flow cytometry was employed to investigate the percent of live, necrotic, and apoptotic cells (FIG. 4).

Row | Structure (SMILES) | loss of enzyme activity (GSH reductase (GOR); GOR ~1.3 nM treated with 40 μM HOCl for 20 minutes, loss within 13 minutes, pH 7.4, 25° C.) [%] | fluorescence with probe compound (1) (intracellular chloramines) (A549 cells [1]; A549 cells treated with 50 μM HOCl 20 min 37° C., then probe (FIG. 3B)) | cell killing (A549 cells [2]; 50 μM HOCl (FIG. 4B)) | apoptotic cells (A549 cells [2]; under the conditions of these experiments (50 μM HOCl with or without 50 μM SCN^−)) | enzyme activity recovered (GSH reductase (GOR); HOCl-modified GOR (40 μM HOCl, 20 minutes) subsequently treated with 160 μM SCN^− for 20 minutes) [%] | fluorescence with probe compound (1) (intracellular chloramines) (A549 cells [1]; A549 cells treated with 50 μM HOCl and subsequently with 50 μM SCN^− 20 minutes (FIG. 3C)) | fluorescence with probe compound (1) (intracellular chloramines) (A549 cells [1]; A549 cells treated with HOCl in the presence of SCN^− (data not shown)) | recovery of HOCl-damaged cells (A549 cells [2]; 50 μM SCN^− added within 30 minutes after 50 μM HOCl (FIG. 4D)) | protection of cells from HOCl (A549 cells [2]; 50 μM SCN^− present before 50 μM HOCl was added (FIG. 4C)) | recovery of HOCl-damaged cells (A549 cells [2]; interval for addition of SCN^− after HOCl 1 hour or more (data not shown))
1 | OCl [HOCl, hypochlorous acid, reference compound] | ~82 | fluoresced | kill roughly half of the cells | essentially no apoptotic cells were observed |  |  |  |  |  | 
2 | N#CS [SCN^−, thiocyanate] |  |  |  |  | ~89 | do not fluoresce | did not fluoresce | the cells were resuscitated | efficient scavenger of HOCl | recovery was not observed

— US20130189773A1, “PRODUCTION OF HYPOTHIOCYANITE FROM HALOGENATED CELLS” (priority 2012, published 2013)
